Data published in the supplement of paper PMC10307832.

What was measured:
Assay in all cases: relative viability (nuclei count vs DMSO), 5 days (fraction); higher = more cells survive
[1] = compound: CN(c1ncccc1CNc1nc(Nc2ccc3c(c2)CC(=O)N3)ncc1C(F)(F)F)S(C)(=O)=O + Nc1ncn([C@H]2C[C@H](O)[C@@H](CO)O2)c(=O)n1 [Decitabine] (partner 2 µM)
Outline: (§1)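 Cells from lung cancer lines were seeded into 1536-well plates and, one day later, dosed by pin tool. Treatments were either a single drug or a fixed dose of an anchor drug with five library-drug doses (not always all listed) in √10 steps. After 5 days, nuclei were stained in a one-step fixation (final 0.05% Triton X-100, 1% formaldehyde, 1 ug/ml Hoechst) and counted on 4× images, and relative viability is the treated-to-vehicle nuclei ratio, as the median of duplicate plates.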

[2] = compound: CN(c1ncccc1CNc1nc(Nc2ccc3c(c2)CC(=O)N3)ncc1C(F)(F)F)S(C)(=O)=O + C[C@@H](Oc1cc(-c2cnn(C3CCNCC3)c2)cnc1N)c1c(Cl)ccc(F)c1Cl [Crizotinib] (partner 1 µM)
Outline: as §1

[3] = compound: CN(c1ncccc1CNc1nc(Nc2ccc3c(c2)CC(=O)N3)ncc1C(F)(F)F)S(C)(=O)=O + N=C(N)NC(=N)NCCc1ccccc1 [Phenformin] (partner 250 µM)
Outline: as §1

[4] = compound: CN(c1ncccc1CNc1nc(Nc2ccc3c(c2)CC(=O)N3)ncc1C(F)(F)F)S(C)(=O)=O + CC1(C)CCC(c2ccc(Cl)cc2)=C(CN2CCN(c3ccc(C(=O)NS(=O)(=O)c4ccc(N[C@H](CCN5CCOCC5)CSc5ccccc5)c(S(=O)(=O)C(F)(F)F)c4)cc3)CC2)C1 [Navitoclax] (partner 0.5 µM)
Outline: as §1

Cell Line	relative viability ([1]; first compound 0.01 µM)	relative viability ([1]; first compound 0.03162 µM)	relative viability ([1]; first compound 0.1 µM)	relative viability ([1]; first compound 0.3162 µM)	relative viability ([1]; first compound 1 µM)	relative viability ([2]; first compound 0.01 µM)	relative viability ([2]; first compound 0.03162 µM)	relative viability ([2]; first compound 0.1 µM)	relative viability ([2]; first compound 0.3162 µM)	relative viability ([2]; first compound 1 µM)	relative viability ([3]; first compound 0.01 µM)	relative viability ([3]; first compound 0.03162 µM)	relative viability ([3]; first compound 0.1 µM)	relative viability ([3]; first compound 0.3162 µM)	relative viability ([3]; first compound 1 µM)	relative viability ([4]; first compound 0.01 µM)	relative viability ([4]; first compound 0.03162 µM)	relative viability ([4]; first compound 0.1 µM)	relative viability ([4]; first compound 0.3162 µM)	relative viability ([4]; first compound 1 µM)
NCI-H727	0.943	0.827	0.793	0.896	0.936	0.925	1.02	0.633	0.885	0.689	0.626	0.655	0.389	0.616	0.444	0.429	0.438	0.435	0.378	0.322
NCI-H838	0.46	0.472	0.5	0.444	0.397	0.807	1.02	0.873	0.672	0.488	0.604	0.671	0.575	0.504	0.396	1.17	1.35	1.27	1.02	0.851
NCI-H1355	0.368	0.36	0.337	0.404	0.379	1.06	1.13	1.02	0.97	0.924	0.45	0.442	0.449	0.406	0.432	0.942	1.02	0.968	0.846	0.776
NCI-H1437	0.535	0.661	0.502	0.498	0.422	0.912	1.02	0.884	0.856	0.77	0.384	0.333	0.284	0.298	0.266	1.1	1.09	1.16	0.986	0.968
NCI-H1650	0.502	0.474	0.513	0.426	0.47	1.01	0.945	1.17		0.94	0.481	0.53	0.519	0.436	0.409	1.26	1.39	1.39		0.76
NCI-H1651	0.657	0.695	0.623	0.713	0.576	0.858	0.85	0.871	0.846	0.884	0.348	0.365	0.359	0.365	0.358	1.07	1	1.21	0.867	0.976
NCI-H1666	0.729	0.749	0.642	0.666	0.628	0.968	0.951	0.781	0.596	0.642	0.524	0.621	0.514	0.508	0.384	1.1	0.986	0.906	0.795	0.57
NCI-H1734	0.473	0.535	0.571	0.524	0.55	0.684	0.734	0.752	0.656	0.618	0.395	0.395	0.375	0.4	0.415	0.894	0.937	0.824	0.866	0.707
NCI-H1755	0.682	0.728	0.721	0.646	0.707	0.873	0.94	0.889	0.781	0.777	0.666	0.615	0.589	0.585	0.574	1.01	1.03	0.972	0.94	0.875
NCI-H1792	0.469	0.586	0.523	0.606	0.586	0.936	1.01	0.971	0.938	0.961	0.258	0.297		0.281	0.489	0.629	0.536	0.578	0.642	0.581
NCI-H1915	0.278	0.258	0.264	0.247	0.256	0.908	0.915	0.877	0.834	0.885	0.386	0.379	0.365	0.368	0.36	0.803	0.849	0.786	0.765	0.728
NCI-H1944	0.448	0.474	0.467	0.432	0.445	0.998	1.11	1.08	1.08	1.06	0.22	0.201	0.193	0.19	0.216	0.984	1.06	1.11	1	1.11
NCI-H1975	0.423	0.403	0.432	0.417	0.436	0.999	0.981	0.911	0.96	0.746	0.386	0.41	0.377	0.392	0.311	1.01	1.12	1.11	1.01	0.854
NCI-H1993	0.624	0.609	0.56	0.574	0.605	0.908	0.907	0.774	0.899	0.846	0.511	0.543	0.448	0.468	0.452	0.822	0.892	0.998	0.911	0.9
NCI-H2009	0.425	0.362	0.372	0.4	0.448	1.01	1.06	1.06	1.02	1.04	0.525	0.483	0.502	0.413	0.504	1.12	1.16	1.13	1.1	1.07
NCI-H2023	0.23	0.259	0.218	0.234	0.202	0.679	0.766	0.682	0.585	0.537	0.451	0.45	0.416	0.314	0.408	0.998	1.1	0.985	0.938	0.837
